# Tests used:
# A1 adenosine receptor = A1 adenosine receptor (Cavia porcellus, UniProt P47745); test: Slowing of A-V conduction (A1 effect) versus coronary vasodilation (A2 effect); design: slowing of A--V (A1 effect) conduction; from tissue
# A2 adenosine receptor = test: Hypotensive (A2) effect in whole animals; type: in vivo
# Sequence of A1 adenosine receptor (P47745 whole entry): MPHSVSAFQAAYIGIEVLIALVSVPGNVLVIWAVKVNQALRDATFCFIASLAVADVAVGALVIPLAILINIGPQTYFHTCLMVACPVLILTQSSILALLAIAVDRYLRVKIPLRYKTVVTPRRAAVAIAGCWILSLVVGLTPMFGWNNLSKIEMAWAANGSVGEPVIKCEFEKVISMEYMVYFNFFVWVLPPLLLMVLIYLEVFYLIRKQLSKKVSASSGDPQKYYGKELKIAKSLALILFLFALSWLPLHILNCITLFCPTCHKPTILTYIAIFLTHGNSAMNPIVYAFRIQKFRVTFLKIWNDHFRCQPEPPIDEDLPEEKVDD
compound,measurement,setting,value
"OC[C@H]1O[C@@H](n2cnc3c(N[C@H]4C[C@@H]5C[C@H]4[C@H]4O[C@@H]54)ncnc32)[C@H](O)[C@@H]1O [N^6-(2S-endo-5,6-epoxynorborn-2-yl) adenosine]",potency for slowing of A-V conduction (A1) over coronary vasodilation (A2),A1 adenosine receptor,more than 100 fold
same,hypotensive (A2) effect,A2 adenosine receptor,no discernable hypotensive (A2) effect
